Results reported in PubChem BioAssay AID256 (DTP/NCI, 2004).
“And” between values parts separate entries of the source, which are not always exact repeats. Equal entries are not always repeated. Inconclusive results and toxic doses are left out.

Tested on: CD2F1 mice, L1210 leukemia ip, survival T/C
Test: NCI In Vivo Anticancer Drug Screen. Data for tumor model L1210 Leukemia (intraperitoneal) in CD2F1 (CDF1) mice
Settings: higher = longer survival
Procedure, shortened: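 Implant tumor; dose compound or vehicle; measure endpoint in both groups; report treated divided by control.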

[1] = endpoint: mean survival time, dose: 100.0 mg/kg/injection, schedule: Q04DX003 (ip), vehicle: saline with Tween-80
[2] = endpoint: mean survival time, dose: 200.0 mg/kg/injection, schedule: Q04DX003 (ip), vehicle: saline with Tween-80
[3] = endpoint: mean survival time, dose: 400.0 mg/kg/injection, schedule: Q04DX003 (ip), vehicle: saline with Tween-80
[4] = endpoint: mean survival time, dose: 100.0 mg/kg/injection, schedule: Q01DX009 (ip), vehicle: saline with Tween-80
[5] = endpoint: mean survival time, dose: 200.0 mg/kg/injection, schedule: Q01DX009 (ip), vehicle: saline with Tween-80
[6] = endpoint: mean survival time, dose: 400.0 mg/kg/injection, schedule: Q01DX009 (ip), vehicle: saline with Tween-80
[7] = endpoint: mean survival time, dose: 100.0 mg/kg/injection, schedule: Q04DX002 (ip), vehicle: saline with Tween-80
[8] = endpoint: mean survival time, dose: 200.0 mg/kg/injection, schedule: Q04DX002 (ip), vehicle: saline with Tween-80
[9] = endpoint: mean survival time, dose: 100.0 mg/kg/injection, schedule: Q04DX003 (ip), vehicle: saline
[10] = endpoint: mean survival time, dose: 200.0 mg/kg/injection, schedule: Q04DX003 (ip), vehicle: saline
[11] = endpoint: mean survival time, dose: 400.0 mg/kg/injection, schedule: Q04DX003 (ip), vehicle: saline

## CCOC(=O)C(=CCBr)C(=O)OCC
endpoint: mean survival time, dose: 1.56 mg/kg/injection, schedule: Q01DX009 (ip), vehicle: other
  T/C: 100 % of control
endpoint: mean survival time, dose: 3.13 mg/kg/injection, schedule: Q01DX009 (ip), vehicle: other
  T/C: 100 % of control
endpoint: mean survival time, dose: 6.25 mg/kg/injection, schedule: Q01DX009 (ip), vehicle: other
  T/C: 107 % of control
endpoint: mean survival time, dose: 12.5 mg/kg/injection, schedule: Q01DX009 (ip), vehicle: other
  T/C: 100 % of control
endpoint: mean survival time, dose: 25.0 mg/kg/injection, schedule: Q01DX009 (ip), vehicle: other
  T/C: 102 % of control

## COc1ccc(NCCOc2ccccc2Br)cc1
endpoint: mean survival time, dose: 100.0 mg/kg/injection, schedule: Q04DX003 (ip), vehicle: other
  T/C: 97 % of control
endpoint: mean survival time, dose: 200.0 mg/kg/injection, schedule: Q04DX003 (ip), vehicle: other
  T/C: 101 % of control
endpoint: mean survival time, dose: 400.0 mg/kg/injection, schedule: Q04DX003 (ip), vehicle: other
  T/C: 95 % of control

## Cn1c(N)c(N)c(=O)n(C)c1=O
endpoint: mean survival time, dose: 100.0 mg/kg/injection, schedule: Q04DX002 (ip), vehicle: saline
  T/C: 109 % of control
endpoint: mean survival time, dose: 200.0 mg/kg/injection, schedule: Q04DX002 (ip), vehicle: saline
  T/C: 102 % of control
endpoint: mean survival time, dose: 400.0 mg/kg/injection, schedule: Q04DX002 (ip), vehicle: saline
  T/C: 109 % of control

## CCCCCCCCC(=O)c1ccc(N=Nc2ccc(OCC)cc2)cc1
[1]
  T/C: 94 % of control
[2]
  T/C: 91 % of control
[3]
  T/C: 89 % of control

## O=C1OC(=O)N2N=CC=CC12 (configuration not stated)
endpoint: mean survival time, dose: 100.0 mg/kg/injection, schedule: Q01DX001 (ip), vehicle: saline sonified
  T/C: 96 % of control
endpoint: mean survival time, dose: 200.0 mg/kg/injection, schedule: Q01DX001 (ip), vehicle: saline sonified
  T/C: 98 % of control
endpoint: mean survival time, dose: 400.0 mg/kg/injection, schedule: Q01DX001 (ip), vehicle: saline sonified
  T/C: 94 % of control

## CCC1(OC(=O)CNC)C(=O)OCc2c1cc1n(c2=O)Cc2cc3ccccc3nc2-1 (configuration not stated)
endpoint: median survival time, dose: 7.5 mg/kg/injection, schedule: Q04DX002 (ip), vehicle: saline
  T/C: 124 % of control
endpoint: median survival time, dose: 15.0 mg/kg/injection, schedule: Q04DX002 (ip), vehicle: saline
  T/C: 160 % of control and 162 % of control
endpoint: median survival time, dose: 30.0 mg/kg/injection, schedule: Q04DX002 (ip), vehicle: saline
  T/C: 239 % of control
endpoint: median survival time, dose: 60.0 mg/kg/injection, schedule: Q04DX002 (ip), vehicle: saline
  T/C: 108 % of control

## O=C(N/N=C/c1cccc([N+](=O)[O-])c1)c1ccccc1
[4]
  T/C: 107 % of control
[5]
  T/C: 102 % of control
[6]
  T/C: 94 % of control

## NC(CCl)=NCC12CC3CC(CC(C3)C1)C2
endpoint: median survival time, dose: 3.0 mg/kg/injection, schedule: Q01DX009 (ip), vehicle: Klucel (hydroxypropylcellulose) (HPC)
  T/C: 104 % of control
endpoint: median survival time, dose: 6.0 mg/kg/injection, schedule: Q01DX009 (ip), vehicle: Klucel (hydroxypropylcellulose) (HPC)
  T/C: 107 % of control
endpoint: median survival time, dose: 12.0 mg/kg/injection, schedule: Q01DX009 (ip), vehicle: Klucel (hydroxypropylcellulose) (HPC)
  T/C: 108 % of control
endpoint: median survival time, dose: 24.0 mg/kg/injection, schedule: Q01DX009 (ip), vehicle: Klucel (hydroxypropylcellulose) (HPC)
  T/C: 110 % of control

## c1ccc(N(c2ccccn2)c2ccccn2)nc1
endpoint: mean survival time, dose: 25.0 mg/kg/injection, schedule: Q04DX002 (ip), vehicle: saline with Tween-80
  T/C: 101 % of control
endpoint: mean survival time, dose: 50.0 mg/kg/injection, schedule: Q04DX002 (ip), vehicle: saline with Tween-80
  T/C: 101 % of control
[7]
  T/C: 97 % of control
[8]
  T/C: 97 % of control

## N#C[Se]CC[Se]C#N
endpoint: mean survival time, dose: 6.25 mg/kg/injection, schedule: Q01DX001 (ip), vehicle: saline with Tween-80
  T/C: 94 % of control
endpoint: mean survival time, dose: 12.5 mg/kg/injection, schedule: Q01DX001 (ip), vehicle: saline with Tween-80
  T/C: 98 % of control
endpoint: mean survival time, dose: 25.0 mg/kg/injection, schedule: Q01DX001 (ip), vehicle: saline with Tween-80
  T/C: 103 % of control

## CC(=O)c1ccccc1OC(=O)c1ccccc1
[4]
  T/C: 100 % of control
[1]
  T/C: 107 % of control
[5]
  T/C: 91 % of control
[2]
  T/C: 101 % of control
[6]
  T/C: 93 % of control
[3]
  T/C: 104 % of control

## Cc1cc(N(CCCl)CCCl)ccc1N=Nc1ccccc1C(=O)O
endpoint: mean survival time, dose: 2.0 mg/kg/injection, schedule: Q01DX009 (ip), vehicle: saline with Tween-80
  T/C: 112 % of control
endpoint: mean survival time, dose: 4.0 mg/kg/injection, schedule: Q01DX009 (ip), vehicle: saline with Tween-80
  T/C: 120 % of control
endpoint: mean survival time, dose: 4.0 mg/kg/injection, schedule: Q04DX003 (ip), vehicle: saline with Tween-80
  T/C: 102 % of control
endpoint: mean survival time, dose: 5.0 mg/kg/injection, schedule: Q01DX009 (ip), vehicle: saline
  T/C: 114 % of control and 106 % of control
endpoint: mean survival time, dose: 8.0 mg/kg/injection, schedule: Q01DX009 (ip), vehicle: saline with Tween-80
  T/C: 120 % of control
endpoint: mean survival time, dose: 8.0 mg/kg/injection, schedule: Q04DX003 (ip), vehicle: saline with Tween-80
  T/C: 109 % of control
endpoint: mean survival time, dose: 10.0 mg/kg/injection, schedule: Q01DX001 (ip), vehicle: saline with Tween-80
  T/C: 106 % of control
endpoint: mean survival time, dose: 10.0 mg/kg/injection, schedule: Q01DX009 (ip), vehicle: saline with Tween-80
  T/C: 114 % of control
endpoint: mean survival time, dose: 10.0 mg/kg/injection, schedule: Q01DX009 (ip), vehicle: saline
  T/C: 115 % of control and 120 % of control
endpoint: mean survival time, dose: 10.0 mg/kg/injection, schedule: Q03DX003 (ip), vehicle: saline
  T/C: 113 % of control
endpoint: mean survival time, dose: 16.0 mg/kg/injection, schedule: Q04DX003 (ip), vehicle: saline with Tween-80
  T/C: 115 % of control
endpoint: mean survival time, dose: 20.0 mg/kg/injection, schedule: Q01DX001 (ip), vehicle: saline with Tween-80
  T/C: 102 % of control
endpoint: mean survival time, dose: 20.0 mg/kg/injection, schedule: Q01DX009 (ip), vehicle: saline with Tween-80
  T/C: 109 % of control
endpoint: mean survival time, dose: 20.0 mg/kg/injection, schedule: Q01DX009 (ip), vehicle: saline
  T/C: 122 % of control
endpoint: mean survival time, dose: 32.0 mg/kg/injection, schedule: Q01DX009 (ip), vehicle: saline with Tween-80
  T/C: 97 % of control
endpoint: mean survival time, dose: 40.0 mg/kg/injection, schedule: Q01DX001 (ip), vehicle: saline with Tween-80
  T/C: 115 % of control and 120 % of control
endpoint: mean survival time, dose: 40.0 mg/kg/injection, schedule: Q01DX007 (ip), vehicle: saline
  T/C: 100 % of control
endpoint: mean survival time, dose: 40.0 mg/kg/injection, schedule: Q01DX009 (ip), vehicle: saline
  T/C: 89 % of control
endpoint: mean survival time, dose: 64.0 mg/kg/injection, schedule: Q04DX003 (ip), vehicle: saline with Tween-80
  T/C: 103 % of control
endpoint: mean survival time, dose: 80.0 mg/kg/injection, schedule: Q01DX001 (ip), vehicle: saline with Tween-80
  T/C: 117 % of control and 91 % of control
endpoint: mean survival time, dose: 160.0 mg/kg/injection, schedule: Q01DX001 (ip), vehicle: saline with Tween-80
  T/C: 102 % of control
endpoint: median survival time, dose: 5.0 mg/kg/injection, schedule: Q01DX009 (ip), vehicle: saline
  T/C: 114 % of control and 105 % of control
endpoint: median survival time, dose: 10.0 mg/kg/injection, schedule: Q01DX009 (ip), vehicle: saline
  T/C: 117 % of control
endpoint: median survival time, dose: 20.0 mg/kg/injection, schedule: Q01DX009 (ip), vehicle: saline
  T/C: 117 % of control
endpoint: median survival time, dose: 40.0 mg/kg/injection, schedule: Q01DX009 (ip), vehicle: saline
  T/C: 114 % of control and 117 % of control

## CS(=O)(=O)c1nccc2ccccc12
[9]
  T/C: 90 % of control
[10]
  T/C: 88 % of control
[11]
  T/C: 95 % of control

## O=P(O)(O)OCCCl
endpoint: mean survival time, dose: 100.0 mg/kg/injection, schedule: Q01DX009 (ip), vehicle: saline
  T/C: 94 % of control
[9]
  T/C: 100 % of control
endpoint: mean survival time, dose: 200.0 mg/kg/injection, schedule: Q01DX009 (ip), vehicle: saline
  T/C: 96 % of control
[10]
  T/C: 94 % of control
endpoint: mean survival time, dose: 400.0 mg/kg/injection, schedule: Q01DX009 (ip), vehicle: saline
  T/C: 94 % of control
[11]
  T/C: 94 % of control

## CC(C)(C)c1ccc(OC(=S)c2ccccc2)cc1
[7]
  T/C: 104 % of control
[8]
  T/C: 89 % of control
endpoint: mean survival time, dose: 400.0 mg/kg/injection, schedule: Q04DX002 (ip), vehicle: saline with Tween-80
  T/C: 89 % of control

## O=C1c2ccccc2C(=O)c2cc(S(=O)(=O)O)ccc21
endpoint: mean survival time, dose: 100.0 mg/kg/injection, schedule: Q01DX001 (ip), vehicle: Klucel (hydroxypropylcellulose) (HPC)
  T/C: 104 % of control
[4]
  T/C: 98 % of control
endpoint: mean survival time, dose: 200.0 mg/kg/injection, schedule: Q01DX001 (ip), vehicle: Klucel (hydroxypropylcellulose) (HPC)
  T/C: 96 % of control
[5]
  T/C: 90 % of control
endpoint: mean survival time, dose: 400.0 mg/kg/injection, schedule: Q01DX001 (ip), vehicle: Klucel (hydroxypropylcellulose) (HPC)
  T/C: 104 % of control
[6]
  T/C: 90 % of control

## Cc1cccc(C)c1NC(=S)NNC(=O)NNC(=S)Nc1c(C)cccc1C
[4]
  T/C: 95 % of control
[5]
  T/C: 95 % of control
[6]
  T/C: 105 % of control
